Results from BindingDB's records for doi:10.1021/acs.jnatprod.0c01136 (Chinese Academy of Sciences, 2021).

Assay: Inhibition of spike glycoprotein S in SARS-CoV-2 pseudovirus infected in human 293T/ACE2 cells assessed as inhibition of viral infection pretreated the virus for 30 mins followed by viral infection measured after 48 hrs by luciferase reporter gene assay

Compound	IC50
COc1c(O)c2c(=O)cc(OC)c3c4c(OC)cc(=O)c5c(O)c(OC)c6c(c(c1C[C@](C)(O)[C@H]6C(C)=O)c23)c54	120 nM
COC1=C(CC(C)=O)C(=O)c2c(c(O)cc(OC)c2-c2c(OC)cc(O)c3c2C(=O)C(CC(C)=O)=C(OC)C3=O)C1=O	170 nM
COc1c2c3c4c(c(OC)c(=O)c5c(O)cc(OC)c(c6c(OC)cc(O)c(c1=O)c63)c54)[C@@H](C(C)=O)[C@@](C)(O)C2 [Hypocrellin A]	38 nM
